Test results: ChEMBL document CHEMBL4715821, “Discovery of 4-ethoxy-7H-pyrrolo[2,3-d]pyrimidin-2-amines as potent, selective and orally bioavailable LRRK2 inhibitors” (Bioorg Med Chem Lett, 2018)

Tests used:
[1] = target: Activin receptor type-1-like (Homo sapiens) (UniProt P37023); experiment: Inhibition of wild-type human partial length ACVRL1 (L164 to Q503 residues) expressed in bacterial expression system assessed as residual activity at 1 uM by Kinomescan method relative to control
[2] = target: Tyrosine-protein kinase ABL1 (Homo sapiens) (UniProt P00519); experiment: Inhibition of human ABL1 expressed in mammalian expression system assessed as residual activity at 1 uM by Kinomescan method relative to control
[3] = target: Serine/threonine-protein kinase N1 (Homo sapiens) (UniProt Q16512); experiment: Inhibition of wild-type human partial length PKN1 (E598 to C948 residues) expressed in bacterial expression system assessed as residual activity at 1 uM by Kinomescan method relative to control
Serine/threonine-protein kinase N1 (Homo sapiens), sequence (Q16512 2-942 limits assumed): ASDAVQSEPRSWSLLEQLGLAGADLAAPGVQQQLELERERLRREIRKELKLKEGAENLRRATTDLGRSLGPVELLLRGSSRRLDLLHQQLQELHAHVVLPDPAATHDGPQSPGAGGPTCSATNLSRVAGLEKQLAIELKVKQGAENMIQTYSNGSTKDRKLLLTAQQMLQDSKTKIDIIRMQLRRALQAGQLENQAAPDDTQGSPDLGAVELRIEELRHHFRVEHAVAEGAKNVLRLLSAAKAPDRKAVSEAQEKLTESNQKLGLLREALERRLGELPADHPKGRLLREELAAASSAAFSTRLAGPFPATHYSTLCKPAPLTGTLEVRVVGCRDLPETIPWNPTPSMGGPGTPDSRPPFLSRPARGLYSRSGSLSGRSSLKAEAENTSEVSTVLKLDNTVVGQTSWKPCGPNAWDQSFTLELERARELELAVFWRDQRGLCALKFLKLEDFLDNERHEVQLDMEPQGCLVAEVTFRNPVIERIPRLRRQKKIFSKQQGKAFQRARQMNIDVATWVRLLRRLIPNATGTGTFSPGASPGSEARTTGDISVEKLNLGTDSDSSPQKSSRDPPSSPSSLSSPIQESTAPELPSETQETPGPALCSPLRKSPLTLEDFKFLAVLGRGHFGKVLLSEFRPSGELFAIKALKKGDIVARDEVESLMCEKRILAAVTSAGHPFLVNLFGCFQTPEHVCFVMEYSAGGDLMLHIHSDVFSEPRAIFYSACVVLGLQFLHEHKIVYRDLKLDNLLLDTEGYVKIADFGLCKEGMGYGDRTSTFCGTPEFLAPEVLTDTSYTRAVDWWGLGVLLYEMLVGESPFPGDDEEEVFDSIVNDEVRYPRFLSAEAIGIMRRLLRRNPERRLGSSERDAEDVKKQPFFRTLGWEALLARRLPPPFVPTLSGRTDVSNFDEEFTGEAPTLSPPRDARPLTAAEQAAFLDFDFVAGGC

[4] = target: Mitogen-activated protein kinase 3 (Homo sapiens) (UniProt P27361); experiment: Inhibition of wild-type human full length ERK1 (M1 to P379 residues) expressed in bacterial expression system assessed as residual activity at 1 uM by Kinomescan method relative to control
[5] = Permeability ratio across apical side to basolateral side in MDCK2 cells transfected with Bacmam virus containing human BCRP at 3 uM after 90 mins in presence or absence of GF120918 by transwell assay; format: ADME, cell-based, Canis lupus familiaris; details: dog, mdck-ii, 1.5 h
[6] = target: Fibroblast growth factor receptor 4 (Homo sapiens) (UniProt P22455); experiment: Inhibition of wild-type human partial length FGFR4 (G402 to E713 residues) expressed in bacterial expression system assessed as residual activity at 1 uM by Kinomescan method relative to control
Fibroblast growth factor receptor 4 (Homo sapiens), sequence (P22455 22-802 limits assumed): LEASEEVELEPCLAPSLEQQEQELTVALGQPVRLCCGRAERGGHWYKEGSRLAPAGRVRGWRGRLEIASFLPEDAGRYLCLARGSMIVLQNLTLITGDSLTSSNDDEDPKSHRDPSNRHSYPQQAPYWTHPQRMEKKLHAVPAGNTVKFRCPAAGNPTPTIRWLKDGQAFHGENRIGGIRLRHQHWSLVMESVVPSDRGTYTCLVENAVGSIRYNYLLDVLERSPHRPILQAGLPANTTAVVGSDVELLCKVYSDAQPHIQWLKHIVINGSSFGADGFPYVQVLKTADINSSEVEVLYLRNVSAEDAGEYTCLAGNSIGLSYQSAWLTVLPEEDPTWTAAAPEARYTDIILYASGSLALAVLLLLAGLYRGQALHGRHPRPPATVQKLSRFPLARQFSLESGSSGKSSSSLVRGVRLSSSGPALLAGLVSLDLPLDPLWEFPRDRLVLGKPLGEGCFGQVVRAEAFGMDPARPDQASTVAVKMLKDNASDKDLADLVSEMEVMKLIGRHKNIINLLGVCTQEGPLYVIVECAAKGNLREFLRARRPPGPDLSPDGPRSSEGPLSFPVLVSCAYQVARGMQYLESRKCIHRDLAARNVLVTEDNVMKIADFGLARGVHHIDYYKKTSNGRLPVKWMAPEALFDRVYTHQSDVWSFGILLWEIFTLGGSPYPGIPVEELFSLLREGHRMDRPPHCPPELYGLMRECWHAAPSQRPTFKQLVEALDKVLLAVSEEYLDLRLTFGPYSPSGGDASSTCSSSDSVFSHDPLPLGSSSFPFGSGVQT

[7] = target: Protein kinase C eta type (Homo sapiens) (UniProt P24723); experiment: Inhibition of PKCeta (unknown origin) assessed as residual activity at 1 uM by Kinomescan method relative to control
Protein kinase C eta type (Homo sapiens), sequence (P24723 whole entry, the tested form may be a part): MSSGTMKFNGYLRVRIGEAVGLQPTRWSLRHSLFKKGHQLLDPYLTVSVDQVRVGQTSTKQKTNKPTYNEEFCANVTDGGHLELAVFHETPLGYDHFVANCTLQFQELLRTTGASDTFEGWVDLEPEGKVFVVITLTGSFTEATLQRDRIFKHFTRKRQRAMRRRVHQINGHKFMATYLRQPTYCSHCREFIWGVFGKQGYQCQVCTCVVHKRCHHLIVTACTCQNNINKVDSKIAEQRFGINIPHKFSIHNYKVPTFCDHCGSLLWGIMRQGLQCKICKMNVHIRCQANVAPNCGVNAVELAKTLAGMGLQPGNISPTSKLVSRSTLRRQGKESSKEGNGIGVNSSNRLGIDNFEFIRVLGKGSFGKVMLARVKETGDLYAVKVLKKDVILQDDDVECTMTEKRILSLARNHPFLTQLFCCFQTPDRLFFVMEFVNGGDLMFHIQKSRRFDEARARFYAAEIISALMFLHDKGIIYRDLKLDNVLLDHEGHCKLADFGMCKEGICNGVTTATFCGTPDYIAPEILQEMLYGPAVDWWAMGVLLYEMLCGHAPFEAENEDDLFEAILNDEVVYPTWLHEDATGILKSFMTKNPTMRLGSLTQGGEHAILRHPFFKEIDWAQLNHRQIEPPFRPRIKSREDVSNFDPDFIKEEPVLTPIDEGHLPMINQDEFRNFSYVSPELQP

[8] = target: Serine/threonine-protein kinase LATS2 (Homo sapiens) (UniProt Q9NRM7); experiment: Inhibition of wild-type human partial length LATS2 (Q641 to V1088 residues) expressed in mammalian expression system assessed as residual activity at 1 uM by Kinomescan method relative to control
[9] = target: Serine/threonine-protein kinase 16 (Homo sapiens) (UniProt O75716); experiment: Inhibition of wild-type human partial length STK16 (G11 to I305 residues) expressed in bacterial expression system assessed as residual activity at 1 uM by Kinomescan method relative to control
Serine/threonine-protein kinase 16 (Homo sapiens), sequence (O75716 whole entry, the tested form may be a part): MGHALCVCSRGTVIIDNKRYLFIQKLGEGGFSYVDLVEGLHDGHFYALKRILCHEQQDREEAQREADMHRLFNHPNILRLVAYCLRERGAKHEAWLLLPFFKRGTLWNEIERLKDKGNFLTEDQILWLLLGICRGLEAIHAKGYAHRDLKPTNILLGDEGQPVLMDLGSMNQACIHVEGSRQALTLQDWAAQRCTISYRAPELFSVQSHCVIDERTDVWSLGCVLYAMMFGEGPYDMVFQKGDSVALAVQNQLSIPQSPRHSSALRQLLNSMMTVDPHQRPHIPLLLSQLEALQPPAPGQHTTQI

[10] = target: Tau-tubulin kinase 2 (Homo sapiens) (UniProt Q6IQ55); experiment: Inhibition of TTBK2 (unknown origin) assessed as residual activity at 1 uM by Kinomescan method relative to control
[11] = target: Macrophage-stimulating protein receptor (Homo sapiens) (UniProt Q04912); experiment: Inhibition of wild-type human partial length MST1R (I1057 to L1363 residues) expressed in bacterial expression system assessed as residual activity at 1 uM by Kinomescan method relative to control
[12] = target: Protein kinase C gamma type (Homo sapiens) (UniProt P05129); experiment: Inhibition of PKCgamma (unknown origin) assessed as residual activity at 1 uM by Kinomescan method relative to control
[13] = target: Leucine-rich repeat serine/threonine-protein kinase 2 (Homo sapiens, UniProt Q5S007); experiment: Inhibition of LRRK2 in human AHE cells assessed as reduction in Ser935 phosphorylation; format: cell-based, Lymphoblastoid cell
[14] = target: Fibroblast growth factor receptor 3 (Homo sapiens) (UniProt P22607); experiment: Inhibition of wild-type human partial length FGFR3 (R442 to S771 residues) expressed in bacterial expression system assessed as residual activity at 1 uM by Kinomescan method relative to control
[15] = target: Cyclin-dependent kinase 2/cyclin E1 (Homo sapiens) (UniProt P24864+P24941); experiment: Inhibition of wild-type human full length CDK2 (M1 to L298 residues)/Cyclin E expressed in bacterial expression system assessed as residual activity at 1 uM by Kinomescan method relative to control
[16] = In vivo inhibition of LRRK2 in Han-Wistar rat assessed as reduction in Ser935 phosphorylation in brain at 10 mg/kg, po by Western blot analysis; format: functional; set-up: scale not given: the % may be the effect or the level left
[17] = target: Bone morphogenetic protein receptor type-2 (Homo sapiens) (UniProt Q13873); experiment: Inhibition of wild-type human partial length BMPR2 (R179 to Q526 residues) expressed in mammalian expression system assessed as residual activity at 1 uM by Kinomescan method relative to control
[18] = target: Mitogen-activated protein kinase kinase kinase kinase 4 (Homo sapiens) (UniProt O95819); experiment: Inhibition of wild-type human partial length MAP4K4 (M1 to R310 residues) expressed in bacterial expression system assessed as residual activity at 1 uM by Kinomescan method relative to control
Mitogen-activated protein kinase kinase kinase kinase 4 (Homo sapiens), sequence (O95819 2-1239 limits assumed): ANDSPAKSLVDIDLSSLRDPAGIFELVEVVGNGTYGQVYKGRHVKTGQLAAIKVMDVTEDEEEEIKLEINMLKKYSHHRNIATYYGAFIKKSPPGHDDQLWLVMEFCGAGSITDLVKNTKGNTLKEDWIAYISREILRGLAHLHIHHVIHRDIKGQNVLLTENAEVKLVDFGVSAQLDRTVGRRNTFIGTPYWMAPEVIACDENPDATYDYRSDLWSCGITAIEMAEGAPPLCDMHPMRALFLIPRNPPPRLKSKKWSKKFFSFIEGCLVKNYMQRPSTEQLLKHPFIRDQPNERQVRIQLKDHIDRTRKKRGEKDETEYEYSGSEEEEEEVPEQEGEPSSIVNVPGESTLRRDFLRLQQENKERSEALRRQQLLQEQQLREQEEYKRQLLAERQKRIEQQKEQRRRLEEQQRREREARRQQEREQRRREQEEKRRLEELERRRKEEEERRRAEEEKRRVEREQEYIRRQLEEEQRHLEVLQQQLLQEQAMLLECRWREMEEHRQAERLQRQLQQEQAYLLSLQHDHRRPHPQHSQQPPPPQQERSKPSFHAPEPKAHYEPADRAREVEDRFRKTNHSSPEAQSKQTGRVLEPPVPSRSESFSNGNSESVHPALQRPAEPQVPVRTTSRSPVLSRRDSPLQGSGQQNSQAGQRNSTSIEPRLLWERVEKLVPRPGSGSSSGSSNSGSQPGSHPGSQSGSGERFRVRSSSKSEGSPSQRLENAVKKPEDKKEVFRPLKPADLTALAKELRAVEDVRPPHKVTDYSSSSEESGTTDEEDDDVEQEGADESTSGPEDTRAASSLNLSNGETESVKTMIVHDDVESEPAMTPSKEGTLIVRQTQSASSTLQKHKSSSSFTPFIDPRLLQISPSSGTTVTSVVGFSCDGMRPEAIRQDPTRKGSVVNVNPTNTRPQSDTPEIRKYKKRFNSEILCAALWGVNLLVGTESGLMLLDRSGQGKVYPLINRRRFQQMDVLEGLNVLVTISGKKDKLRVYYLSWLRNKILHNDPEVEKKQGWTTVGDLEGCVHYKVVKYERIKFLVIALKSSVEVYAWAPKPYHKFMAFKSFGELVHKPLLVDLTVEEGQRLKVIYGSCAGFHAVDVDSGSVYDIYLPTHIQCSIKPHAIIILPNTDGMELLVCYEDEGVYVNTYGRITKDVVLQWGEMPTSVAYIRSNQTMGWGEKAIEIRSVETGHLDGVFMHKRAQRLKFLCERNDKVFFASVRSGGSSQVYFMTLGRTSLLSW

[19] = target: Tyrosine-protein kinase Fes/Fps (Homo sapiens) (UniProt P07332); experiment: Inhibition of wild-type human partial length FES (I527 to R822 residues) expressed in bacterial expression system assessed as residual activity at 1 uM by Kinomescan method relative to control
[20] = target: Serine/threonine-protein kinase Chk2 (Homo sapiens) (UniProt O96017); experiment: Inhibition of CHK2 (unknown origin) assessed as residual activity at 1 uM by Kinomescan method relative to control
Serine/threonine-protein kinase Chk2 (Homo sapiens), sequence (O96017 whole entry, the tested form may be a part): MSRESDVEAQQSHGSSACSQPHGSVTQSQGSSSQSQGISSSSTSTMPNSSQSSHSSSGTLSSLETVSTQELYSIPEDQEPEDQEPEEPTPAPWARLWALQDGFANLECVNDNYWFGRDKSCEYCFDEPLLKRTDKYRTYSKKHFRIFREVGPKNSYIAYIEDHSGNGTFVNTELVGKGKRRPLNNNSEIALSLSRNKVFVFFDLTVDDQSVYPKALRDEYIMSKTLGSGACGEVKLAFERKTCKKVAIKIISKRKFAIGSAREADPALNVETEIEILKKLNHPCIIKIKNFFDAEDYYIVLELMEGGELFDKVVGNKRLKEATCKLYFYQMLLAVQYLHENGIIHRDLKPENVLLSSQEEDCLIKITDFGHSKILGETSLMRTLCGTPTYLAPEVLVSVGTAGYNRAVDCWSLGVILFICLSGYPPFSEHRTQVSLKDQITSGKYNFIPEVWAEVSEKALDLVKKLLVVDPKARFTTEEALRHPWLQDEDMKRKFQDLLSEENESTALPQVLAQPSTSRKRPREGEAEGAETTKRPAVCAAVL

[21] = target: Ribosomal protein S6 kinase alpha-5 (Homo sapiens) (UniProt O75582); experiment: Inhibition of wild-type human partial length N-terminal RPS6KA5 kinase domain 1 expressed in bacterial expression system assessed as residual activity at 1 uM by Kinomescan method relative to control
[22] = target: Tyrosine-protein kinase Lyn (Homo sapiens) (UniProt P07948); experiment: Inhibition of wild-type human partial length LYN (C219 to Q511 residues) expressed in bacterial expression system assessed as residual activity at 1 uM by Kinomescan method relative to control
Tyrosine-protein kinase Lyn (Homo sapiens), sequence (P07948 2-512 limits assumed): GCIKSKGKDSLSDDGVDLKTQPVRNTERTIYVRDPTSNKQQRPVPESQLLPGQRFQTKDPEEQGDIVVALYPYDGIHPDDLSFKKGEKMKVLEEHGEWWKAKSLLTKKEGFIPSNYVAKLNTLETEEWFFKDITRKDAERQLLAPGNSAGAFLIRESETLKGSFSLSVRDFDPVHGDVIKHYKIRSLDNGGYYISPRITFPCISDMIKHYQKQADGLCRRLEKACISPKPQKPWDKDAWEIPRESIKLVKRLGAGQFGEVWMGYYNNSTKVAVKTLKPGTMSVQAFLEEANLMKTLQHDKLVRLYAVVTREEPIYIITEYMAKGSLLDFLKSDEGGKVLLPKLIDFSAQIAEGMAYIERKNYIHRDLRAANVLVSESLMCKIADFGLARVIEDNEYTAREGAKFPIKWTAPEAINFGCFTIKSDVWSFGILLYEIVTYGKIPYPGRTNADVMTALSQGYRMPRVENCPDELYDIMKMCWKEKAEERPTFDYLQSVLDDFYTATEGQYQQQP

[23] = target: Casein kinase II subunit alpha (Homo sapiens) (UniProt P68400); experiment: Inhibition of CK2alpha (unknown origin) assessed as residual activity at 1 uM by Kinomescan method relative to control
[24] = target: MAP kinase-interacting serine/threonine-protein kinase 2 (Homo sapiens) (UniProt Q9HBH9); experiment: Inhibition of MNK2 (unknown origin) assessed as residual activity at 1 uM by Kinomescan method relative to control
[25] = target: Serine/threonine-protein kinase Nek3 (Homo sapiens) (UniProt P51956); experiment: Inhibition of wild-type human full length NEK3 (M1 to R506 residues) expressed in mammalian expression system assessed as residual activity at 1 uM by Kinomescan method relative to control
[26] = target: Protein kinase C delta type (Homo sapiens) (UniProt Q05655); experiment: Inhibition of PKCdelta (unknown origin) assessed as residual activity at 1 uM by Kinomescan method relative to control
[27] = target: Fibroblast growth factor receptor 1 (Homo sapiens) (UniProt P11362); experiment: Inhibition of wild-type human partial length FGFR1 (P357 to V669 residues) expressed in bacterial expression system assessed as residual activity at 1 uM by Kinomescan method relative to control
[28] = target: Tau-tubulin kinase 1 (Homo sapiens) (UniProt Q5TCY1); experiment: Inhibition of TTBK1 (unknown origin) assessed as residual activity at 1 uM by Kinomescan method relative to control

CCOc1nc(Nc2ccc(C(=O)N3CCOCC3)cc2OC)nc2[nH]ccc12
Activity [1]: 74%
Activity [2]: 105%
Activity [3]: 94.8%
Activity [4]: 95.7%
Ratio [5]: 3.1
Activity [6]: 83.7%
Activity [7]: 99.2%
Activity [8]: 96.3%
Activity [9]: 98.7%
Activity [10]: 104%
Activity [11]: 96.9%
Activity [12]: 101%
IC50 [13]: 31.6 nM
Activity [14]: 103%
Activity [15]: 92.1%
Activity [16]: 20%
Activity [17]: 72.2%
Activity [18]: 95.6%
Activity [19]: 43.2%
Activity [20]: 16.8%
Activity [21]: 97.6%
Activity [22]: 99.7%
Activity [23]: 79.9%
Activity [24]: 102%
Activity [25]: 104%
Activity [26]: 99.8%
Activity [27]: 90.7%
Activity [28]: 103%
